Molecules are shown by their SMILES.

Regarding `Cc1cc(/C=C/C(=O)O)c(C)n1-c1nccs1`, the melting point (commonly the temperature, or range, at which the solid turns liquid) is 160 to 162 °C.
The value for `CCN(c1ccccc1)S(=O)(=O)c1cc(N)ccc1Cl` was 102 to 104 °C; that for `COC(=O)c1noc(C)c1C(=O)c1ccccc1` was 90 to 92 °C; that for `NS(=O)(=O)c1cc(F)ccc1Br` was 170 to 172 °C.
To `CN(C)C(=O)c1ccc(F)nc1` belongs 44 to 46 °C; to `O=C(O)c1nc(-c2ccccc2)oc1-c1ccccc1`, 193 to 195 °C.
Regarding `Cc1ccc(Oc2ccc(N)cc2)nn1`, the melting point was 114 to 116 °C.
To `N#Cc1ccc(Nc2cccc(C(=O)O)c2)cc1` belongs 247 to 249 °C; to `CNS(=O)(=O)c1ccccc1CN`, 115 to 117 °C.
The value for `COc1ccc2c(c1)C=C(C#N)CO2` was 72 to 74 °C; that for `Cc1ccc(-n2c(C)ccc2C)c(C(=O)O)c1` was 157 to 159 °C; that for `CCOC(=O)c1cc2c(C)cc(C)cc2[nH]1` was 119 to 121 °C.
To `NC(=O)c1c[nH]c(C(=O)O)c1` belongs 264 to 266 °C; to `CC(=O)c1c[nH]c2cc(Br)ccc12`, 239 to 241 °C; to `O=C(O)CCNS(=O)(=O)c1ccc(F)cc1`, 123 to 127 °C.
The molecule `Nc1ccc2nc(C3CC3)oc2c1` came in with a melting point of 99 to 101 °C.
The value for `CC(C)c1ccc(SC(C(=O)O)c2ccccc2)cc1` (stereo unspecified) was 99 to 101 °C; that for `O=[N+]([O-])c1ncn(CCO)n1` was 76 to 78 °C.
To `CC(C)(C)OC(=O)N1CCc2ccc(N)cc2C1` belongs 93 to 95 °C.
To `Cc1ccc2oc(C(=O)O)c(C)c2c1` belongs 180 to 182 °C.
The molecule `CC(C)(C)NC(=O)c1ccccc1C(=O)O` showed a melting point of 146 to 148 °C.
The value for `CCNS(=O)(=O)c1ccc(C)c(C(=O)O)c1` was 181 to 183 °C; that for `O=S1(=O)CCC(S(=O)(=O)Cl)CC1` was 175 to 177 °C; that for `O=C(CCl)Nc1ccnn1Cc1ccccc1Cl` was 119 to 121 °C.
Molecule `COc1ccc(C(=O)N2CCCCCC2)cc1N` showed a melting point of 133 to 135 °C.
The value for `CCNc1ncccc1N` was 108 to 110 °C.
`Clc1ccc2nccnc2n1` returned a melting point of 148 to 150 °C.
The value for `O=C1CCc2c(F)ccc(Br)c21` was 129 to 131 °C; that for `CCOC(=O)c1cc(CC)sc1NC(=O)CCl` was 74 to 76 °C; that for `CCOC(=O)C1CC(=O)NN1c1ncccc1Cl` (stereo unspecified) was 135 to 137 °C.
Regarding `O=S(=O)(CCCl)c1ccc(Br)cc1`, the melting point was in the range of 110 to 112 °C.
The value for `CC(C)n1cc(S(=O)(=O)Cl)cn1` was 53 to 55 °C; that for `Nc1ccccc1NS(=O)(=O)c1ccc(F)cc1` was 122 to 124 °C; that for `CC(CC(=O)O)NCCO` (stereo unspecified) was 180 to 182 °C.
To `O=C(c1cccc(F)c1)c1cccc(Br)c1` belongs 65 to 67 °C.
The value for `O=C(O)C1CC12CCCc1ccccc12` (stereo unspecified) was 161 to 163 °C; that for `CC(C(=O)O)N(C)c1nccn2cnnc12` (stereo unspecified) was 153 to 155 °C; that for `NS(=O)(=O)Cc1cccc(C(=O)O)c1` was 234 to 236 °C.
Molecule `CC(Cl)c1nc(-c2nnc[nH]2)no1` (stereo unspecified) registered a melting point of 187 to 189 °C.
Molecule `Cc1ccc2nc(CO)cc(=O)n2c1` gave a melting point of 171 to 173 °C.
The value for `Nc1cc(Br)cnc1Br` was 137 to 139 °C.
The value for `O=C(O)c1cccnc1-n1cccn1` was 106 to 108 °C; that for `Oc1ccc(-c2nc(-c3ccccc3)cs2)cc1` was 148 to 150 °C.
The value for `CCCCc1nnc(N)o1` was 139 to 141 °C.
Turning to `CCOC(=O)COc1ccccc1O`, the melting point lay within 51 to 53 °C.
`O=C(O)CCOc1ccccc1Cl`: the melting point was 115 to 117 °C.
To `CCn1c(C)cc(C(=O)O)c1C` belongs less than 17 °C; to `Nn1c(S)nnc1C1CCCO1` (stereo unspecified), 143 to 147 °C; to `Nc1cccc(Oc2ncccn2)c1`, 125 to 127 °C.
The value for `CCOC(=O)c1c(CCCO)cnc2cc(C)nn12` was 76 to 78 °C.
The value for `O=C(CCOc1ccccc1)NO` was 138 to 140 °C; that for `O=C(CCl)Nc1ccc2c(c1)C(=O)c1ccccc1C2=O` was 298 to 300 °C.
`O=C(O)c1cc2c(F)cc(F)cc2[nH]1` showed a melting point of 252 to 254 °C.
For the molecule `COc1cc(OC)c([N+](=O)[O-])cc1F`, the melting point was 152 to 154 °C.
The value for `CC1(c2ccncc2)NC(=O)NC1=O` (stereo unspecified) was 231 to 233 °C; that for `Cc1c([N+](=O)[O-])cccc1S(=O)(=O)Cl` was 47 to 49 °C.
The value for `Cc1nc(-c2ccc(S(=O)(=O)Cl)cc2)co1` was 84 to 86 °C; that for `Cc1ccccc1CNC(=O)C(C)Cl` (stereo unspecified) was 108 to 110 °C.
In turn, `O=C(O)COc1ccc(C2SCCS2)cc1` gave a melting point of 137 to 139 °C.
In the case of `OCc1sc(N2CCOCC2)nc1-c1ccccc1`, the melting point fell in the range of 118 to 120 °C.
To `O=[N+]([O-])c1cn(Cc2ccc(F)cc2)cn1` belongs 109 to 111 °C.
To `Nc1ccc(Sc2ccncc2)cc1` belongs 169 to 171 °C.
The value for `CCCc1ccc(N2CC(C(=O)O)CC2=O)cc1` (stereo unspecified) was 136 to 138 °C; that for `Brc1ccc(Cn2cccn2)cc1` was 43 to 45 °C; that for `CN(CC12CC3CC(CC(C3)C1)C2)C(=O)CCl` was 52 to 54 °C.
In turn, `CNS(=O)(=O)c1ccc(/C=C/C(=O)O)cc1` showed a melting point of 259 to 261 °C.
The value for `CC(=O)c1ccc(C#N)c(F)c1` was 62 to 64 °C.
In turn, `Brc1cccc(-c2nnco2)c1` came in with a melting point of 74 to 76 °C.
The value for `CCC(=O)Nc1ccc(C)c(N)c1` was 121 to 123 °C.
To `CC(C)(C)Cc1cc(N)n(-c2ccccc2)n1` belongs 95 to 97 °C; to `COc1ccc(Br)c(-c2nnc(CCC(=O)O)o2)c1`, 116 to 118 °C; to `Cc1cc(C=O)c(C)n1-c1ccc2c(c1)CCC2`, 71 to 75 °C.
On to `Nc1nc2c(cc1C(=O)O)CCCC2`, for which the melting point was in the range of 285 to 287 °C.
To `Cc1cc(C(=O)O)nc(-c2ccc(Cl)cc2)n1` belongs 163 to 165 °C; to `O=C(O)CCc1nc2c(F)cccc2[nH]1`, 185 to 187 °C.
For the molecule `O=C(O)c1ccc(S(=O)(=O)Cl)cc1Br`, the melting point lay in the range of 204 to 206 °C.
To `O=C(O)c1ccc(Br)c(S(=O)(=O)Cl)c1` belongs 181 to 183 °C; to `O=C(O)C1CCCN(C(=O)c2ccncc2)C1` (stereo unspecified), 258 to 260 °C.
Consider `COc1ccc(CCNC(=O)CC(=O)NCCc2ccc(OC)cc2)cc1`, for which the melting point was in the range of 161 to 163 °C.
The value for `ClCc1cc2c(cc1Br)OCCO2` was 117 to 119 °C; that for `COc1ccc(Nc2ccccc2)cc1` was 104 to 106 °C; that for `Cc1cc(N)n(-c2cc(Cl)ncn2)n1` was 171 to 173 °C.
The value for `O=C(O)c1cc(S(=O)(=O)Cl)cc(F)c1Cl` was 149 to 151 °C; that for `NC(=O)c1c(N)sc2c1CCCCC2` was 195 to 199 °C.
Consider `O=C(O)C#Cc1ccc2c(c1)OCO2`, for which the melting point is 165 to 167 °C.
The molecule `NS(=O)(=O)c1ccc2c(c1)C(=O)C(=O)N2` came in with a melting point of 258 to 260 °C.
To `Oc1cnc2cc(Cl)c(Cl)cc2n1` belongs 299 to 301 °C; to `Cn1c(C(N)c2ccccc2)nc2ccccc21` (stereo unspecified), 110 to 112 °C.
The value for `CC(C)(C)OC(=O)NCC(=O)NN` was 79 to 81 °C; that for `CCOC(=O)c1nnc(-c2ccccc2)o1` was 69 to 71 °C; that for `COc1ccc(OC(C)C(=O)O)cc1` (stereo unspecified) was 91 to 93 °C.
As for `Nc1cc(N2CCCC2=O)ccc1Cl`, the melting point was 139 to 141 °C.
`O=C(O)c1ccc(Br)c(O)c1` gave a melting point of 219 to 221 °C.
On to `c1cn2c(n1)NCCC2`, for which the melting point fell in the range of 104 to 106 °C.
The value for `CN(C)C(=O)Cn1ccc2cc(N)ccc21` was 124 to 126 °C; that for `Cn1ncc(CN)c1N` was 91 to 93 °C; that for `O=C(NO)c1occc1CSc1ccccc1` was 99 to 101 °C.
With `Cc1nn(C)c2ncc(C=O)cc12`, the melting point fell in the range of 107 to 109 °C.
To `COc1ccc(CCNC(=O)C(C)Cl)cc1OC` (stereo unspecified) belongs 76 to 78 °C; to `COC(=O)C(Cc1c[nH]cn1)NC(=O)CCc1ccccc1` (stereo unspecified), 152 to 154 °C; to `COCCOc1ccc(/C(C)=N\O)cc1OC`, 124 to 126 °C.
To `CC(=O)c1cc(F)ccc1-n1ccnc1` belongs 182 to 184 °C.
The value for `OC(c1ccccc1)(c1ccc(F)cc1)c1ccc(F)cc1` was 86 to 88 °C.
The molecule `Oc1ccccc1-c1ccn[nH]1` yielded a melting point of 95 to 97 °C.
To `NS(=O)(=O)C1CN(C(=O)OCc2ccccc2)C1` belongs 103 to 105 °C; to `CC(=O)c1ccc(OC2CCOCC2)cc1`, 72 to 74 °C; to `CN(C)C(C)(C(=O)O)c1ccc(Cl)cc1` (stereo unspecified), 239 to 241 °C.
In the case of `O=[N+]([O-])c1ccn(C2CCCCC2O)n1` (stereo unspecified), the melting point fell in the range of 94 to 96 °C.
The value for `Cc1cs/c(=N\c2ccccc2)n1C1CCCC1` was 51 to 53 °C; that for `COC(=O)C(=O)CC(=O)c1ccc(N2CCOCC2)cc1` was 164 to 166 °C; that for `CNC(=O)c1cccc(CCl)c1` was 61 to 63 °C.
The value for `Cc1ccc(C(=O)N=[N+]=[N-])o1` was 33 to 35 °C.
To `COc1ccc(C2=CCNC2)cc1` belongs 94 to 96 °C.
In turn, `CCC(CC)(CN)NC(=O)OC(C)(C)C` gave a melting point of 49 to 51 °C.
The value for `CC(=O)Nc1ccc(N)c(Cl)c1` was 113 to 115 °C.
To `COc1ccc(C(=O)NCC(=O)O)cc1[N+](=O)[O-]` belongs 98 to 100 °C.
The value for `NC(=O)Cc1ccc(Br)cc1` was 194 to 196 °C; that for `O=C(c1ccc(F)cc1)c1cnc2ccccc2c1` was 89 to 91 °C; that for `O=C(O)C1(c2ccc(F)cc2F)CCOCC1` was 134 to 136 °C.
As to `Cc1nonc1N`, the melting point was 56 to 58 °C.
The value for `CCOC=C1C(=O)N(c2ccc(OCC)cc2)C(=O)c2ccccc21` was 175 to 177 °C.
